Data: patent US20080319000A1, “Use of 3,1IB-Cis-Dihydrotetrabenazine for the Treatment of Symptoms of Huntingtons Disease” (CAMBRIDGE LABORATORIES (IRELAND) LIMITED, priority 2005, published 2008)

Target: T1, catechol O-methyl transferase (COMT) (Homo sapiens, UniProt P21964)
T1 sequence (P21964 1-271): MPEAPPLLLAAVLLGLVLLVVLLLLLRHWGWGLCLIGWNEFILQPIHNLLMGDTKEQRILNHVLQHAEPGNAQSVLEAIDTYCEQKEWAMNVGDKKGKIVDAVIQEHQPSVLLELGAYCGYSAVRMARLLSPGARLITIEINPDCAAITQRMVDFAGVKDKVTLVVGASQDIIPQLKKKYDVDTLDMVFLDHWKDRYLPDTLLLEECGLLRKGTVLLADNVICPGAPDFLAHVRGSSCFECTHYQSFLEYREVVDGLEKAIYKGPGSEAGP
Test: COMT inhibition
Assay type: biochemical

Compound: COc1cc2c(cc1OC)[C@H]1C[C@H](O)[C@@H](CC(C)C)CN1CC2 (single isomer, unassigned) [Isomer B]
- inhibitory activity against catechol O-methyl transferase (COMT): no inhibitory activity
